Assays:
[1] = system: mice with DC crush injury; assay: Spinal cord water content (oedema) after DC crush injury in mice; assay type: in vivo, mouse; details: 3 days after DC injury; doses and routes of Table 1; vs DC+vehicle
Description: For oral delivery of AZD1236, n=6 adult male C57BL6 mice/group (Charles River, Margate, UK) were randomly allocated to either: (1), Sham (control; partial laminectomy but no DC crush injury); (2), DC crush injury+vehicle (partial laminectomy followed by DC crush injury and injection of vehicle); (3), DC crush injury+100 mg/kg AZD1236; (4), DC crush injury+200 mg/kg AZD1236; and (5), DC crush injury+300 mg/kg AZD1236. For intrathecal (it) delivery of AZD1236, adult male C57BL6 mice (25-30 g) (Charles River, Margate, UK) were randomly allocated to either: (1), Sham (control; partial laminectomy but no DC crush injury); (2), DC crush injury+vehicle (partial laminectomy followed by DC crush injury and injection of vehicle); (3), DC crush injury+2.5 mg/kg AZD1236; (4), DC crush injury+5 mg/kg AZD1236; and (5), DC crush injury+10 mg/kg AZD1236. For intrathecal delivery an indwelling atlanto-occipital intrathecal catheter was inserted into the intrathecal space, as described previously (F. A. Oladosu, B. P. Ciszek, S. C. O'Buckley, A. G. Nackley, Novel intrathecal and subcutaneous catheter delivery systems in the mouse. J Neurosci Methods 264, 119-128 (2016)). Briefly, with mice in the sternal recumbency a small incision was made at the nape of the neck followed by detachment of the muscles on either side of the external occipital crest to expose the A-O membrane. The membrane was incised and a 6 cm Alzet mouse intrathecal catheter (Alzet, Cupertino, Calif., USA) and polyurethane segments were gently guided 2.5 cm into the intrathecal space. The catheter was secured using 4-0 silk sutures (Oasis Medical, IL) and the exposed end of the catheter was sealed off with a stainless-steel plug and affixed to the upper back. Animals were injected immediately with vehicle or AZD1236 followed by a 10 μl PBS catheter flush. Injections were repeated every twice daily for the first 3 days after injury and drugs and vehicle reagents were delivered over 1 min time period using a Hamilton microlitre syringe (Hamilton Co, USA). Where specified intact animals with no surgical procedures were also used. All lesions were administered under 5% isofluorane induced inhalation anaesthesia, with 1.51/min O2. Pre- and post-injury analgesia was also provided.
DC crush injury was administered bilaterally at the T8 vertebral level as described previously (S. Surey, M. Berry, A. Logan, R. Bicknell, Z. Ahmed, Differential cavitation, angiogenesis and wound-healing responses in injured mouse and rat spinal cords. Neuroscience 275, 62-80 (2014); M. L. Read, S. Mir, R. Spice, R. J. Seabright, E. L. Suggate, Z. Ahmed, M. Berry, A. Logan, Profiling RNA interference (RNAi)-mediated toxicity in neural cultures for effective short interfering RNA design. J Gene Med 11, 523-534 (2009)). Briefly, calibrated watchmaker's forceps were separated by 0.5 mm and inserted through the dorsal cord meninges to a depth of 0.45 mm in mice and separated by 1 mm and inserted through the dorsal cord meninges to a depth of 1.0 mm in rats, and the DC were crushed for 3 seconds. AZD1236 or vehicle was administered twice daily by oral gavage or intrathecally, either immediately for the first 3 days or 24 hours after injury and treating twice daily until day 4 (i.e. 3 days of AZD1236 dosing). All experiments were performed with n=6 mice/group and repeated on at least 2-3 independent occasions (total=12-18 animals/group/test).
The lesion site+3 mm either side for mice and the lesion site+5 mm either side for the rat DC model were dissected out and the water content of the spinal cord (as a measure of oedema) was determined at 3 days after DC and CC SCI, as described previously (S. Li, C. H. Tator, Effects of MK801 on evoked potentials, spinal cord blood flow and cord edema in acute spinal cord injury in rats. Spinal Cord 37, 820-832 (1999)). Spinal cords containing the lesion site were weighed on aluminium foil, dried at 105° C. for 24 hr, and re-weighed. […]

[2] = system: IL-1β, TNF-α and IL-6; assay: Proinflammatory pain markers after CC SCI in mice; assay type: in vivo, mouse; details: oral gavage immediately after injury
Description: CC SCI was administered at the T7-T8 vertebral level after exposure of T6-T9 by laminectomy. The aneurysm clip applicator was oriented in a bilateral direction and an aneurysm clip with a closing force of 24 g was applied extradurally for 60 s, as described previously (A. S. Rivlin, C. H. Tator, Effect of duration of acute spinal cord compression in a new acute cord injury model in the rat. Surg Neurol 10, 38-43 (1978):E. Esposito, I. Paterniti, E. Mazzon, T. Genovese, M. Galuppo, R. Meli, P. Bramanti, S. Cuzzocrea, MK801 attenuates secondary injury in a mouse experimental compression model of spinal cord trauma. BMC Neurosci 12, 31 (2011)).
The urinary bladders were manually emptied twice daily until bladder function was regained. Adult male C57BL6 mice (25-30 g) (Charles River, Margate, UK) were randomly allocated to either: (1), Sham (control; laminectomy but no CC SCI); (2), CC SCI+vehicle; (3), CC SCI+200 mg/kg AZD1236 (oral); (4), CC SCI+5 mg/kg AZD1236 (it). All experiments were performed with n=6 mice/group and repeated on 3 independent occasions (total=18 mice/group/test).
The lesion site+5 mm either side (DC and CC SCI, n=6 mice/rats/group, 2 independent repeats (total n=12 mice/rats/group)) was dissected and rapidly frozen in liquid N2 and stored at −80° C. until required. […] The levels of mRNA of MMP-9, MMP-12, IL-1β, TNF-α and IL-6 were determined using pre-validated mouse primer sequences from complimentary DNA prepared from extracted mRNA and qRT-PCR was performed using a LightCycler PCR machine (Roche, Burgess Hill, UK) (M. L. Read, S. Mir, R. Spice, R. J. Seabright, E. L. Suggate, Z. Ahmed, M. Berry, A. Logan, Profiling RNA interference (RNAi)-mediated toxicity in neural cultures for effective short interfering RNA design. J Gene Med 11, 523-534 (2009)). […] Fold changes were computed using the ΔΔCt method (M. L. Read, S. Mir, R. Spice, R. J. Seabright, E. L. Suggate, Z. Ahmed, M. Berry, A. Logan, Profiling RNA interference (RNAi)-mediated toxicity in neural cultures for effective short interfering RNA design. J Gene Med 11, 523-534 (2009).

[3] = system: SCI-induced oedema; assay: Example 3: spinal cord water content with aquaporin-4 relocalisation inhibitors; details: in vivo
Description: (§1) The lesion site+3 mm either side for mice and the lesion site+5 mm either side for the rat DC model were dissected out and the water content of the spinal cord (as a measure of oedema) was determined at 3 days after DC and CC SCI, as described previously (S. Li, C. H. Tator, Effects of MK801 on evoked potentials, spinal cord blood flow and cord edema in acute spinal cord injury in rats. Spinal Cord 37, 820-832 (1999)). Spinal cords containing the lesion site were weighed on aluminium foil, dried at 105° C. for 24 hr, and re-weighed. The percent water content was calculated as: water content (%)=[(wet weight-dry weight)/wet weight]×100%.
Using similar techniques to those described in Example 1, the water content in the spinal cord as a measure of injury-induced oedema was determined for various agents and aquaporin-4 inhibitors, namely TFP, PKAi, PKCi and TGN-020—see FIG. 21.

[4] = system: mice with DC crush injury; assay: Spinal cord water content (oedema) after DC crush injury in mice; assay type: in vivo, mouse; details: IP, twice daily
[5] = system: mice with DC crush injury; assay: CSF biomarkers of SCI (S100β, NSE, GFAP, pNF-H, NF-L); assay type: in vivo, mouse; details: 3 d after injury
[6] = system: IL-1β, TNF-α and IL-6; assay: Proinflammatory pain cytokines after DC injury in rats; assay type: in vivo; details: rat DC injury, oral
Description: The efficacy of oral AZD3342 in the DC injury model in adult Sprague-Dawley rat was also assessed. Animals were divided into 6 groups: (1), Sham (control); (2), DC crush injury+Vehicle; (3), DC crush injury+15 mg/kg AZD3342; (4), DC crush injury+75 mg/kg […]; (5), DC crush injury+375 mg/kg AZD3342; and (6), DC crush injury+Melatonin. Animals were dosed twice daily with oral AZD3342 or vehicle with the experimenters masked to the treatment conditions. These experiments were performed with n=6 rats/group and repeated on 2-3 independent occasions (total n=12-18 rats/group/test).
The lesion site+5 mm either side (DC and CC SCI, n=6 mice/rats/group, 2 independent repeats (total n=12 mice/rats/group)) was dissected and rapidly frozen in liquid N2 and stored at −80° C. until required. […] The levels of mRNA of MMP-9, MMP-12, IL-1β, TNF-α and IL-6 were determined using pre-validated mouse primer sequences from complimentary DNA prepared from extracted mRNA and qRT-PCR was performed using a LightCycler PCR machine (Roche, Burgess Hill, UK) (M. L. Read, S. Mir, R. Spice, R. J. Seabright, E. L. Suggate, Z. Ahmed, M. Berry, A. Logan, Profiling RNA interference (RNAi)-mediated toxicity in neural cultures for effective short interfering RNA design. J Gene Med 11, 523-534 (2009)). […]

[7] = system: rats with DC crush injury; assay: Spinal cord water content after DC injury in rats; assay type: in vivo; details: rat DC injury, oral, 3 days
Description: DC crush injury was administered bilaterally at the T8 vertebral level as described previously (S. Surey, M. Berry, A. Logan, R. Bicknell, Z. Ahmed, Differential cavitation, angiogenesis and wound-healing responses in injured mouse and rat spinal cords. Neuroscience 275, 62-80 (2014); M. L. Read, S. Mir, R. Spice, R. J. Seabright, E. L. Suggate, Z. Ahmed, M. Berry, A. Logan, Profiling RNA interference (RNAi)-mediated toxicity in neural cultures for effective short interfering RNA design. J Gene Med 11, 523-534 (2009)). […]
The efficacy of oral AZD3342 in the DC injury model in adult Sprague-Dawley rat was also assessed. […]
as §1, with “Spinal cords containing the lesion site were weighed on aluminium foil, dried at 105° C. for 24 hr, and re-weighed.” left out

[8] = system: J774A.1, RAW 264.7 and primary mouse peritoneal macrophages; assay: Transwell migration assay of macrophages; assay type: cell-based; details: J774A.1 and RAW 264.7, 3 h
Description: J774A.1 cells (#TIB-67; ATCC, Middlesex, UK) were cultured in DMEM supplemented with 10% FBS, 100 U/ml penicillin, 100 μg/ml streptomycin, and 0.25 μg amphotericin B. Cells were seeded in T75 tissue-culture flasks and maintained at 37° C. and 5% CO2. RAW 264.7 cells (#TIB-71; ATCC) were maintained in DMEM containing 10% FBS.
Resident peritoneal cells were harvested from adult C57BL/6 mice (6-8 weeks old) by injection of 10 ml of PBS using a 21G needle into the peritoneal cavity and harvesting the cell suspension, as described previously (Rosas M, Davies L C, Giles P J, Liao C T, Kharfan B, Stone T C, et aL. The transcription factor Gata6 links tissue macrophage phenotype and proliferative renewal. Science 2014; 344(6184): 645-8). Peritoneal cells were then centrifuged at 100×g for 10 min and the cell pellet resuspended in DMEM/F12 medium. Cell were incubated at 37° C., for 2 h and non-adherent cells were removed by gentle washing. Cells were expanded in DMEM/F12 medium containing 10% FBS. For migration assays, cells were grown in RPMI containing 0.02% BSA for 24 h to obtain quiescent cells prior to using them in Transwell migration assays as described below.
Migration assays were performed with J774A.1, RAW 264.7 and primary mouse peritoneal macrophages in 6.5 mm Transwell plates (ThermoFisher) with 8 μm pore inserts, as described previously (Green et al., 2012). Briefly, inserts were coated with rat tail type I collagen and 1×10^5 cells (J774A.1, RAW 264.7 or primary mouse macrophages) were resuspended in chemotaxis buffer (RMPI 1640 plus 0.02% BSA, (termed RPMI from herein)) and added to the upper chamber and incubated with migration medium, with or without known chemotactic factors MCP-1 (100 ng/ml) and PMA (100 nM), or AZD1236, GM6001, SD2590 and MMP-9 Inhibitor I (all used at 1, 10, 100, 1000 ng/ml) added to the lower chamber. Cells were allowed to migrate through the insert membrane for 3 h at 37° C., before washing inserts with PBS. Non-migrating cells remaining on the upper surface were removed with a cotton swab whilst the migrated cells on the insert were fixed, stained with Diff-Quick (#26096, Electron Microscopy Science, Hatfield, UK), and mounted on glass slides. Migration was measured visually by counting using a light microscope at 40× magnification. The mean number of cells in 10 random fields were calculated for each treatment by an experimenter masked to the treatment conditions. A migration index was calculated by dividing the number of cells that migrated in response to the chemokine by the number of cells that migrated randomly (RPMI medium) with a reference index>1, indicating chemotaxis.

COc1ccc(Cl)cc1C(=O)NCCc1ccc(S(=O)(=O)NC(=O)NC2CCCCC2)cc1 [Glibenclamide, reference compound]
spinal cord water content, comparison of MMP inhibitors (FIG. 4) [1]: significantly reduced spinal cord water content

CC(C)C[C@H](CN)CC(=O)O [pregabalin]
proinflammatory pain markers after CC injury, comparison with pain medications (FIG. 7) [2]: much less effective

NCC1(CC(=O)O)CCCCC1 [gabapentin]
proinflammatory pain markers after CC injury, comparison with pain medications (FIG. 7) [2]: much less effective

CN1CCN(CCCN2c3ccccc3Sc3ccc(C(F)(F)F)cc32)CC1 [TFP, trifluoperazine]
SCI-induced oedema, water content (FIG. 21) [3]: suppress SCI-induced oedema

COC(=O)Nc1ccc2oc3cc(S(=O)(=O)N[C@@H](C(=O)O)C(C)C)ccc3c2c1 [MMP408]
SCI-induced oedema with tool inhibitors singly or in combination (FIG. 3D) [4]: suboptimal therapeutic benefits

COc1ccc2[nH]cc(CCNC(C)=O)c2c1 [melatonin, reference compound]
levels of S100β, NSE, GFAP, pNF-H and NF-L in CSF [5]: marginally reduced
expression of proinflammatory pain cytokines [6]: small effect
spinal cord water content, comparison of MMP inhibitors (FIG. 4) [1]: significantly reduced spinal cord water content
SCI-induced edema (spinal cord water content) [7]: marginal effect

MCP-1: known chemotactic factor, positive control in migration assay
macrophage migration (migration index, chemotaxis) [8]: stimulated significant chemotaxis

CCCCCCCCCCCCCC(=O)O[C@@H]1[C@@H](C)[C@@]2(O)[C@@H](C=C(CO)C[C@]3(O)C(=O)C(C)=C[C@@H]23)[C@@H]2C(C)(C)[C@]12OC(C)=O [PMA]
macrophage migration (migration index, chemotaxis) [8]: stimulated significant chemotaxis

Nc1nc2ccc(OC(F)(F)F)cc2s1 [Riluzole, reference compound]
spinal cord water content, comparison of MMP inhibitors (FIG. 4) [1]: significantly reduced spinal cord water content

— patent US20230255943A1, “MMP-9 AND MMP-12 INHIBITION FOR TREATING SPINAL CORD INJURY OR RELATED INJURY TO NEUROLOGICAL TISSUE” (The University of Birmingham, priority 2020, published 2023)
